# According to patent US5516790A, “Synthesis and application of alkyl-substituted dibenzofurans as antitumorigenic agents” (Texas A&M University System Technology Licensing Office, priority 1994, dated 1996):
# Where two headings read alike, the source gives them in different places.
# Experiments:
# estrogen receptor = conditions: female rat; cited from earlier work
# [1] = tested on: MCF-7 human breast cancer cells; conditions: TCDD; cited from earlier work
# nuclear ER [2] = conditions: cited from earlier work
# 52-kDa protein = type: cell-based, human
# Description: (§1) On day 0, the media was removed and the cells were rinsed two times with PBS. […] The cells were allowed to incubate for 48 h. […] After 6 h, the media was removed, 10 μl was counted and the remaining media was used for analysis of secreted proteins.
# (§2) The secreted proteins were analyzed by sodium dodecyl sulfate (SDS) polyacrylamide gel electrophoresis; 30 μl of the media was mixed with an equal volume of buffer containing SDS, β-mercaptoethanol, glycerol, Tris and bromophenol blue. The samples were heated for 2 minutes in a boiling water bath and 50 μl of each sample was loaded onto a 1.5 mm thick 12% acrylamide slab gel (containing 0.075% bisacrylamide) with a 3% stacking gel (containing 0.15% bisacrylamide). The gels were run at […] overnight and processed for fluorography (using Enhance: Dupont) and exposed to Kodak X-OMAT film for 10 days at -80° C. The molecular weights of the proteins were estimated by their mobility relative to a set of standard proteins with known molecular weights.
# (§3) The incorporation of ^35 S-methionine into the 34-kDa, 52-kDa and 160-kDa proteins was estimated by scanning the films using a Zeineh Soft Laser Scanning Densitometer (model SLR-20/10) from Biomedical Instruments,Inc. The percentage of the area of the scans due to the particular protein was then compared between the experimental and control samples and the results are presented as means ± SD for at least three samples per treatment group.
# 160-kDa protein = type: cell-based, human; conditions: for Secreted 160-kDa protein: 2880 min
# Description: as §1, §2, §3
# 34-kDa protein = type: cell-based, human; conditions: for Secreted 34-kDa protein: 2880 min
# Description: as §1, §2, §3
# nuclear ER [3] = experiment: Nuclear ER levels in MCF-7 cells; type: cell-based, human; conditions: TCDD (10 nM), MCDF (100 nM)
# Description: MCF-7 cells, obtained from American Type Culture Collection (Rockville, Ma.), were maintained at 37° C. in closed Corning T-25, 75 or 150 cm^2 flasks (Corning Glassworks, Corning, N.Y.) and passaged in logarithmic growth phase.
# For the 2,3,7,8-TCDD antiestrogenicity studies, cells were treated 24 hours prior to harvesting with various concentrations of 2,3,7,8-TCDD (0.1 nM to 100 nM 2,3,7,8-TCDD). Interactive effects between 2,3,7,8-TCDD and estradiol were conducted using these same concentrations of 2,3,7,8-TCDD and 10 nM estradiol. […]
# MCF-7 cells from a single near confluent T-25 flask were incubated at 37° C. for 0.5 hours prior to harvesting with 10 nM 2,4,6,7-[^3H]-estradiol. The medium was then decanted and the cells were rinsed once with Hanks' balanced salt solution containing 1 mM EDTA. The cells were collected by centrifugation, washed gently in 2 ml of TEDG buffer and homogenized in 300 μl of TEDG buffer containing protease inhibitors [soybean trypsin inhibitor 5 mg/ml (Sigma), leupetin 1 mg/ml (Sigma), and phenylmethylsulfonyl fluoride 1 mg/ml (Sigma) by 40 strokes of a Dounce homogenizer. The homogenate was centrifuged at 800×g for 10 minutes. The crude nuclear pellet was resuspended in 300 μl of TEDGK buffer (10 mM Tris-HCl, 1.5 mM EDTA-4Na, 10 mM dithiothreitol, 10% (v/v) glycerol, 0.8 M KCl, pH 8.5 at 4° C.). The nuclear ER levels were then determined as described below.
# The nuclear extract previously obtained was incubated with 10 nM [^3 H]-estradiol plus or minus radioinert diethylstilbestrol for 1 hour at 0-4° C., with resuspension by agitation every 15 minutes. The sample was then centrifuged at 180,000×g for 30 minutes, then 200 μl of the supernatant obtained was layered onto linear 1-20% sucrose gradients prepared in TEDGMK buffer. As before, the gradients were centrifuged at 406,000×g for 2.5 hours in a vertical rotor. Following centrifugation, 30 fractions of […] were collected and the radioactivity in each sample was determined.
# progesterone receptor = conditions: female rat; cited from earlier work
# female rat uterus = type: in vivo, female Sprague/Dawley rats
# Description: TCDD or MCDF was co-administered with a second dose of estradiol and the animals were killed 48-hours later. A second group of animals was similarly treated with corn oil, TCDD, MCDF, or TCDD plus MCDF, all administered in corn oil at 10 ml/kg and terminated 72 hours later.
# The animals were terminated by cervical dislocation. Livers were perfused with ice-cold TEDG buffer (10 mM Tris-HCl, 1.5 mM EDTA-4Na, 1 mM dithiothreitol, 10% glycerol (v/v), pH 7.4). Following perfusion in situ, livers were removed, weighed, and homogenized in ice-cold TEDG buffer. Uteri were also removed, weighed, and homogenized in ice-cold buffer. The homogenates were then centrifuged at 800×g […] for 15 minutes and the nuclear pellets were stored at -80° C. The supernatants were further centrifuged at 180,000×g for 1.5 hour. The cytosolic supernatant was also stored at -80° C. Estrogen and progesterone receptor levels were determined within 7 days.
# [4] = 17β-estradiol (1 nM) + TCDD 0.0001 nM
# [5] = 17β-estradiol (1 nM) + TCDD 0.001 nM
# [6] = 17β-estradiol (1 nM) + TCDD 0.01 nM
# [7] = 17β-estradiol (1 nM) + TCDD 0.1 nM
compound,measurement,setting,value
"Clc1cc2c(cc1Cl)Oc1cc(Cl)c(Cl)cc1O2 [TCDD, 2,3,7,8-tetrachloridibenzo-p-dioxin]",constitutive and 17β-estradiol induced uterine and hepatic estrogen receptor levels,estrogen receptor,decreased
same,17β-estradiol-induced growth of MCF-7 human breast cancer cells,[1],inhibits
same,immunoreactive ER protein,"nuclear ER [2]; concentration-dependent, antibodies to human ER",decrease in immunoreactive ER protein
same,levels of occupied nuclear ER complex,nuclear ER [2]; cotreatment 10 nM TCDD plus [3H]-17β-estradiol,did not affect
same,occupied nuclear ER levels,nuclear ER [2]; pretreatment with TCDD 6 or 12 hours prior to radiolabeled hormone,significant downregulation
same,secretion of the 52-kDa protein,52-kDa protein; 10 nM TCDD alone,did not significantly affect
same,hormone-induced secretion of the 52-kDa protein,52-kDa protein; TCDD plus 17β-estradiol,significantly inhibited
same,secretion of the 160-kDa protein,160-kDa protein; 10 nM TCDD alone,did not significantly affect
same,Secreted 160-kDa protein,160-kDa protein; [4],321 ± 29.0% of the values for control
same,Secreted 160-kDa protein,160-kDa protein; [5],167 ± 31.3% of the values for control
same,Secreted 160-kDa protein,160-kDa protein; [6],127 ± 21.0% of the values for control
same,Secreted 160-kDa protein,160-kDa protein; [7],94.3 ± 5.23% of the values for control
same,Secreted 160-kDa protein,"160-kDa protein; TCDD alone, 0.0001 nM",97.4 ± 2.73% of the values for control
same,Secreted 160-kDa protein,"160-kDa protein; TCDD alone, 0.001 nM",94.3 ± 3.00% of the values for control
same,Secreted 160-kDa protein,"160-kDa protein; TCDD alone, 0.01 nM",90.4 ± 17.2% of the values for control
same,Secreted 160-kDa protein,"160-kDa protein; TCDD alone, 0.1 nM",92.8 ± 5.16% of the values for control
same,hormone-induced secretion of the 160-kDa protein,160-kDa protein; TCDD plus 17β-estradiol,significantly inhibited
same,secretion of the 34-kDa protein,34-kDa protein; 10 nM TCDD alone,did not significantly affect
same,Secreted 34-kDa protein,34-kDa protein; [4],255 ± 37.8% of the values for control
same,Secreted 34-kDa protein,34-kDa protein; [5],151 ± 20.7% of the values for control
same,Secreted 34-kDa protein,34-kDa protein; [6],94.2 ± 24.0% of the values for control
same,Secreted 34-kDa protein,34-kDa protein; [7],94.9 ± 11.4% of the values for control
same,Secreted 34-kDa protein,"34-kDa protein; TCDD alone, 0.0001 nM",86.5 ± 8.56% of the values for control
same,Secreted 34-kDa protein,"34-kDa protein; TCDD alone, 0.001 nM",95.2 ± 12.8% of the values for control
same,Secreted 34-kDa protein,"34-kDa protein; TCDD alone, 0.01 nM",85.7 ± 11.9% of the values for control
same,Secreted 34-kDa protein,"34-kDa protein; TCDD alone, 0.1 nM",94.5 ± 133% of the values for control
same,hormone-induced secretion of the 34-kDa protein,34-kDa protein; TCDD plus 17β-estradiol,significantly inhibited
same,nuclear ER levels,nuclear ER [3],decrease in nuclear ER levels
same,constitutive and 17β-estradiol induced uterine and hepatic progesterone receptor levels,progesterone receptor,decreased
same,Uterine Wet Weight,"female rat uterus; compound alone: TCDD 0.256 or MCDF 100 μmol/kg, or estradiol",0.086 ± 0.011 % body wt
same,Uterine Wet Weight,female rat uterus; cotreatment with E-2,0.245 ± 0.026 % body wt
